Reference: paper PMC6812009, “Covalent Aurora A regulation by the metabolic integrator coenzyme A” (Redox Biology, 2019)

Columns and labels:
Experiment in all cases: Kinase profiling screen (radioactive filter-binding assay)
Type in all cases: biochemical
PAK4 = PAK4 (Homo sapiens, UniProt O96013); details: 100 μM compound, 5 μM ATP; read-out: Kinase activity, % of activity in the absence of inhibitor
Procedure, shortened: (§1)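 Residual kinase activity is read in duplicate wells containing 100 μM final test compound (CoA, dpCoA or ADP). Recombinant kinases use model substrates at ATP levels optimal for each enzyme, across a 117-kinase screen.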

PKD1 = biological target: T1, PKD1 (Homo sapiens, UniProt Q15139); details: 100 μM compound, 50 μM ATP; read-out: Kinase activity, % of activity in the absence of inhibitor
T1 sequence (Q15139 1-912): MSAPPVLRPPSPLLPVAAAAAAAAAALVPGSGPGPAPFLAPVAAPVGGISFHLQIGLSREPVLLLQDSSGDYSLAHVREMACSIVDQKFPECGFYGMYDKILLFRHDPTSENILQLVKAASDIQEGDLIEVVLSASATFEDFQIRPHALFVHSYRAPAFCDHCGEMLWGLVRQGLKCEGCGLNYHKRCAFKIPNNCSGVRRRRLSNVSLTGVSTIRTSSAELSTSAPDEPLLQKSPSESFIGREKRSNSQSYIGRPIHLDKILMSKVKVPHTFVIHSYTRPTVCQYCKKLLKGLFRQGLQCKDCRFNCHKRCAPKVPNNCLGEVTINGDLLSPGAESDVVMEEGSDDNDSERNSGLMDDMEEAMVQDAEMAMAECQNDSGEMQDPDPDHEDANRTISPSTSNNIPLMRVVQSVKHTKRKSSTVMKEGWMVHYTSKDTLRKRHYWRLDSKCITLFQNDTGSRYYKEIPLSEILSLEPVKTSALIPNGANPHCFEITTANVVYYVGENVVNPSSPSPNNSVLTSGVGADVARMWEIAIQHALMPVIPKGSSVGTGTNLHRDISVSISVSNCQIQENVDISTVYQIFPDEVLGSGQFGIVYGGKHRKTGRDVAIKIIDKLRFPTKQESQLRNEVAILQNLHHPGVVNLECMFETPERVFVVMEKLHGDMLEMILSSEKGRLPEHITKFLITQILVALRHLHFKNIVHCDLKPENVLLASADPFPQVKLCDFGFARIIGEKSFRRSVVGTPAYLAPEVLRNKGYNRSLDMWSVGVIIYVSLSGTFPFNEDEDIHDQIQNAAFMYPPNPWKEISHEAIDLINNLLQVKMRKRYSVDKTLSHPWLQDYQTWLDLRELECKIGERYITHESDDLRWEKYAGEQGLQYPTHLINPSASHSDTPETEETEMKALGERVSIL
Procedure, shortened: as §1

BTK = BTK (Homo sapiens, UniProt Q06187); details: for activity at 100 µM: 100 μM compound, 50 μM ATP, read-out: Kinase activity, % of activity in the absence of inhibitor
Chain of BTK (Q06187 whole entry): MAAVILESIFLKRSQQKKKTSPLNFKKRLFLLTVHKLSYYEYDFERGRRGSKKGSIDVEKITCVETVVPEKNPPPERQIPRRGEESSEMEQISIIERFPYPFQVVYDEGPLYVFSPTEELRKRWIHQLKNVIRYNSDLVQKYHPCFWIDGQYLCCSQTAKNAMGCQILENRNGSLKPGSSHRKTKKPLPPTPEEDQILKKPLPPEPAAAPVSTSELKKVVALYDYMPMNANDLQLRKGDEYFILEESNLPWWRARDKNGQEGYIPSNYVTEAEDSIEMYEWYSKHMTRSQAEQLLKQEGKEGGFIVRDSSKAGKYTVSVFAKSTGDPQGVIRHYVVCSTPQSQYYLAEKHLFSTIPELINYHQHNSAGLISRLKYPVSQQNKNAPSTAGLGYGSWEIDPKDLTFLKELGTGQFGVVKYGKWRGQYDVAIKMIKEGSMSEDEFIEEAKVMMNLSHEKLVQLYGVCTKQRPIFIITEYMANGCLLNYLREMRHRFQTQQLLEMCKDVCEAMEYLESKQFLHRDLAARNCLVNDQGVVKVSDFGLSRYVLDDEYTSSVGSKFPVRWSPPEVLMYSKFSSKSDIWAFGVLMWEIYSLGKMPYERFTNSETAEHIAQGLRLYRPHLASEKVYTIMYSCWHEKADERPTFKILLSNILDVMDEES
Procedure, shortened: as §1

HER4 = HER4 (Homo sapiens, UniProt Q15303); details: 100 μM compound, 5 μM ATP; read-out: Kinase activity, % of activity in the absence of inhibitor
Chain of HER4 (Q15303 26-1308): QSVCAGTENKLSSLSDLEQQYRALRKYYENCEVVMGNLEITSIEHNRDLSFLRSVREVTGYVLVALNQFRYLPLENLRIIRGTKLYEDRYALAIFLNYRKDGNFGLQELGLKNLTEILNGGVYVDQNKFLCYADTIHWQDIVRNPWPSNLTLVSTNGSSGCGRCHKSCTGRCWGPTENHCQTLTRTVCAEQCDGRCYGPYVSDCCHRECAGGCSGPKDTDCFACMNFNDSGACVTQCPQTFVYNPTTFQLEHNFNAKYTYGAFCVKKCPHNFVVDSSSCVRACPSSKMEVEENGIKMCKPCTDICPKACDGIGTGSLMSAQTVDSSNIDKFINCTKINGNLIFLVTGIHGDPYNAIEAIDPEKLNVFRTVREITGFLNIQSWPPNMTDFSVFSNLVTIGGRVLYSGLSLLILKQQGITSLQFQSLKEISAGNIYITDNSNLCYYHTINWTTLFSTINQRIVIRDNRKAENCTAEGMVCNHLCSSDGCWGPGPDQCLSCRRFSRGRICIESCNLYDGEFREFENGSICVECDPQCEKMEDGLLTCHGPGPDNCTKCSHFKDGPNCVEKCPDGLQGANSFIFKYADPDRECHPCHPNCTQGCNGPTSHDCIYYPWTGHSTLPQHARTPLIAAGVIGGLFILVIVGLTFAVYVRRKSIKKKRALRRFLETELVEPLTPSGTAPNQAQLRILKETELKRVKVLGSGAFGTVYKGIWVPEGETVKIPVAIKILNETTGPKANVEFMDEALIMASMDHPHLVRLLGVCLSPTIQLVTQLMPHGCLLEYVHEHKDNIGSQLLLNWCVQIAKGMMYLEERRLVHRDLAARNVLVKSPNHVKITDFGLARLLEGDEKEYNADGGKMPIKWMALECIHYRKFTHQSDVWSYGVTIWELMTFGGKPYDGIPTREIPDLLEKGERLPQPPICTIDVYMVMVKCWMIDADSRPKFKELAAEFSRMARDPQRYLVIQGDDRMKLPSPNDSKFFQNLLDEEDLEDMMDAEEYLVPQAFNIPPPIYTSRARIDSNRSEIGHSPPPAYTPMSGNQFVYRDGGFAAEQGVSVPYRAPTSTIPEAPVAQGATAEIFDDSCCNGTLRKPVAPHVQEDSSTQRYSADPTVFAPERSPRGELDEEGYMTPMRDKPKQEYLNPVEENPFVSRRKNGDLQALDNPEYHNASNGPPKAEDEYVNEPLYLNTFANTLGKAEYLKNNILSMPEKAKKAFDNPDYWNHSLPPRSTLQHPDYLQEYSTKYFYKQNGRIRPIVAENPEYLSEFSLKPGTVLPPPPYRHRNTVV
Procedure, shortened: as §1

JNK1 = JNK1 (Homo sapiens, UniProt P45983); details: 100 μM compound, 20 μM ATP; read-out: Kinase activity, % of activity in the absence of inhibitor
Chain of JNK1 (P45983 whole entry): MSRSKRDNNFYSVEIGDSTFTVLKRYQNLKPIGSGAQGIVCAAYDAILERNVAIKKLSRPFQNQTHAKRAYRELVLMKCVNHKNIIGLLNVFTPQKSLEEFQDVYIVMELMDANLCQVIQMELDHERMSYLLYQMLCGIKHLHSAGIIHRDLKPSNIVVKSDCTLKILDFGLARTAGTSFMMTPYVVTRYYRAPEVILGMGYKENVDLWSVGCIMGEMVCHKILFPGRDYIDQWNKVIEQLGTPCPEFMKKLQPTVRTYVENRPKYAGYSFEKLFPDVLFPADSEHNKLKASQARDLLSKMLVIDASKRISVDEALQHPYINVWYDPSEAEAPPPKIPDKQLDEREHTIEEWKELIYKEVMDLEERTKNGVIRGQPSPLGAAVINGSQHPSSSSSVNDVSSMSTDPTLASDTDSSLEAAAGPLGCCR
Procedure, shortened: as §1

ZAP70 = biological target: T2, ZAP70 (Homo sapiens, UniProt P43403); details: 100 μM compound, 5 μM ATP; read-out: Kinase activity, % of activity in the absence of inhibitor
T2 sequence (P43403 1-619): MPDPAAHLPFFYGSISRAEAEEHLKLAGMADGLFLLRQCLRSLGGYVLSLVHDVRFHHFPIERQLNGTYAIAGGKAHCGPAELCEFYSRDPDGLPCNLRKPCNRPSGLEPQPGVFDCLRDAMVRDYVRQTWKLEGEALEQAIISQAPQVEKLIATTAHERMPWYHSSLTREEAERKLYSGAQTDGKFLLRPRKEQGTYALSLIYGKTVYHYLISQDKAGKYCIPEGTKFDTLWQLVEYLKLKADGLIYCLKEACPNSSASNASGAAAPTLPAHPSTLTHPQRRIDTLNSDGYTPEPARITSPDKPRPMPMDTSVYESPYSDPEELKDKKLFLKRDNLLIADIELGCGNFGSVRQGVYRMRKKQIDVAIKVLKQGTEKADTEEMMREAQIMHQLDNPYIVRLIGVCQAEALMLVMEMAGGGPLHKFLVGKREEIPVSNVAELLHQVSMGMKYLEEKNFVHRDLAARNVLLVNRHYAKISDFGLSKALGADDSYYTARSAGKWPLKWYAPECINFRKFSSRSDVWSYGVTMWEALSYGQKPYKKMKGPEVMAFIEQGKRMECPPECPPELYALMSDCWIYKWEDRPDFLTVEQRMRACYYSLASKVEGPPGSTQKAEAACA
Procedure, shortened: as §1

CHK1 = biological target: T3, CHK1 (Homo sapiens, UniProt O14757); details: 100 μM compound, 20 μM ATP; read-out: Kinase activity, % of activity in the absence of inhibitor
T3 sequence (O14757 1-476): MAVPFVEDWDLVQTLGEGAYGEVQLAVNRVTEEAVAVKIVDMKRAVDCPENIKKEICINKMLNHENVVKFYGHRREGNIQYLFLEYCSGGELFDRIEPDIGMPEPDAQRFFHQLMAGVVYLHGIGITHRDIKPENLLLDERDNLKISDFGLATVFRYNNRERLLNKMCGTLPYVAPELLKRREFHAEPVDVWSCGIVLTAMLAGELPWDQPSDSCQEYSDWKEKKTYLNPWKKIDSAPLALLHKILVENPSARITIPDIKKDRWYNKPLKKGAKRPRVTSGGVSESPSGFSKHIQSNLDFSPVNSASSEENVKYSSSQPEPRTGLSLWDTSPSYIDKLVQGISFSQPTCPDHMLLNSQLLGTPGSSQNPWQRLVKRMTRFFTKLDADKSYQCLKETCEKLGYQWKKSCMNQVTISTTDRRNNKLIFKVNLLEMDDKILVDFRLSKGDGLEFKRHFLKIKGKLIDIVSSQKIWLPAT
Procedure, shortened: as §1

Chain of PAK4 (O96013 whole entry): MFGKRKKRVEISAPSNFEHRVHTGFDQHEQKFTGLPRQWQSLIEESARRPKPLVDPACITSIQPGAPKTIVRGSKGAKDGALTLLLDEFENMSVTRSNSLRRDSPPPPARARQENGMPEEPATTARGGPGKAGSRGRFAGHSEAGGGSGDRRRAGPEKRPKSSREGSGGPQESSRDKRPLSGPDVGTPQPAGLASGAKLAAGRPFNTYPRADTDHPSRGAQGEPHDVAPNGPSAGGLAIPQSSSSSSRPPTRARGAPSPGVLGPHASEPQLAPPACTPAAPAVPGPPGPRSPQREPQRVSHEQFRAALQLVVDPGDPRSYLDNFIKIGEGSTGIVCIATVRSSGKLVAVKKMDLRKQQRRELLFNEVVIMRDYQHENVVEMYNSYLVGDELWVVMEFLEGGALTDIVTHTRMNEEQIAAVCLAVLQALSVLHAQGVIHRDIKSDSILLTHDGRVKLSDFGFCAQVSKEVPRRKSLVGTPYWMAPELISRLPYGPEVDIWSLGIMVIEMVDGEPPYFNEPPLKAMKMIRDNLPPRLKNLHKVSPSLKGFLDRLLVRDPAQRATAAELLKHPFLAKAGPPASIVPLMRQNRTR

Structure (SMILES)	activity at 100 µM (PAK4) [%]	activity at 100 µM (PKD1) [%]	activity at 100 µM (BTK) [%]	activity at 100 µM (HER4) [%]	activity at 100 µM (JNK1) [%]	activity at 100 µM (ZAP70) [%]	activity at 100 µM (CHK1) [%]	BTK inhibition (in words) (BTK; kinase profiling, 100 μM)
Nc1ncnc2c1ncn2C1OC(COP(=O)(O)OP(=O)(O)O)C(O)C1O (stereo not shown) [ADP]	73.8	56.2	18.2	29.1	53.9	13.2	47.6	–
CC(C)(COP(=O)(O)OP(=O)(O)OC[C@H]1O[C@@H](n2cnc3c(N)ncnc32)[C@H](O)[C@@H]1OP(=O)(O)O)[C@@H](O)C(=O)NCCC(=O)NCCS [CoA, Coenzyme A]	69.9	112	67.9	100	85.4	89.7	123	modestly inhibited
CC(C)(COP(=O)(O)OP(=O)(O)OCC1OC(n2cnc3c(N)ncnc32)C(O)C1O)C(O)C(=O)NCCC(=O)NCCS (stereo not shown) [dpCoA, dephospho-CoA]	75.9	104	30.6	75.7	82.4	79.8	78.8	–
